The values that follow come from patent publication US11524966B1 (Valo Early Discovery, Inc., priority 2017, dated 2022).

In general, IC50 refers to the midpoint of a concentration-inhibition curve.

This test concerns the target T1, USP28 (His-tagged USP28-FL-mammalian) (Homo sapiens, UniProt Q96RU2).
T1 construct: Expression of USP28 (1-1077)-TEV-6*His (pTT5 vector); made in house; host or cells: Expi293f cells (pTT5 vector)
T1 sequence (Q96RU2 1-1077): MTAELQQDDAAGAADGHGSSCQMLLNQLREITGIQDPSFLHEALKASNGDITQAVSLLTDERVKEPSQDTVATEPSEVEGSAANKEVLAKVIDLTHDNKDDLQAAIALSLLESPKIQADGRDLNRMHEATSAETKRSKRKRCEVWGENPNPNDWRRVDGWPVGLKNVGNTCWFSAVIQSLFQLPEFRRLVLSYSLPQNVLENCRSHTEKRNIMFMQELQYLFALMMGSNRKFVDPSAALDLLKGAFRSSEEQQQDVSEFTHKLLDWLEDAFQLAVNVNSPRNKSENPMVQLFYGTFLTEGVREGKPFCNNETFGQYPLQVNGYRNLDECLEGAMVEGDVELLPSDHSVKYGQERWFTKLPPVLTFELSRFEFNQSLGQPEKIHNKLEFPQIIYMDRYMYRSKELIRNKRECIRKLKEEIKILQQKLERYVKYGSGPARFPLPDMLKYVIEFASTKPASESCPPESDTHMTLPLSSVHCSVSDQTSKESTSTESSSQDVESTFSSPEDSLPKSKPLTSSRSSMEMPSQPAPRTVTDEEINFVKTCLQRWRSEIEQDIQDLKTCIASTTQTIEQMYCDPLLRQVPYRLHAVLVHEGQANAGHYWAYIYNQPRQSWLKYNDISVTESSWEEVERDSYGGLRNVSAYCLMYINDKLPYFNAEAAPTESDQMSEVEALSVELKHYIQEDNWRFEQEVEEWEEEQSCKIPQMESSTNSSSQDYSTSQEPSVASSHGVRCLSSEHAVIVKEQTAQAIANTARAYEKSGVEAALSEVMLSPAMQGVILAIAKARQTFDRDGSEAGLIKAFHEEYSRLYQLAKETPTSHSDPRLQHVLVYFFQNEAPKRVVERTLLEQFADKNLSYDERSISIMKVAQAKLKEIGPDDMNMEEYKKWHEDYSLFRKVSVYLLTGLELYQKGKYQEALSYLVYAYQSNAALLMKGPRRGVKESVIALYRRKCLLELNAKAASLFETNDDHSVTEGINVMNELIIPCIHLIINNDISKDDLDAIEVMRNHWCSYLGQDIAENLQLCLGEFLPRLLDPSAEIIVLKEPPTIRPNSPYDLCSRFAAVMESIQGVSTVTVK
The experiment in a line: Ubiquitin-Rhodamine 110 Assay for USP28 Activity, Example A-1(a). The class given is biochemical. The settings on record: Ubiquitin-Rhodamine 110 assay, Example A-1(a); read-out: USP28 A-1(a) IC50 range. An outline of the steps: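 IC50 from 4-parameter logistic fit of percent inhibition versus no-enzyme and DMSO controls; compounds 25 μM to 1.3 nM, 3-fold. Ub-Rh110 cleavage (25 nM, below Km) by […] mammalian-expressed USP28-FL-His ran 45 min at room temperature, stopped with 10 mM citric acid, read ex 485/em 535.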
In the case of `N#Cc1c(N2CC3CCC(C2)N3)cc(F)c2c1CC[C@@H](NC(=O)c1cnc3c(c1)[C@H]1C[C@H]1CN3)C2` [Example 198, (6aR,7aS)-N-[(2R)-5-cyano-6-{3,8-diazabicyclo[3.2.1]octan-3-yl}-8-fluoro-1,2,3,4-tetrahydronaphthalen-2-yl]-5H,6H,6aH,7H,7aH-cyclopropa[c]1,8-naphthyridine-2-carboxamide], the 50% inhibitory concentration (IC50) lay in the range of 0.2 to 2 µM.

Regarding `Cc1ccc2c(N)c(C(=O)N[C@H]3COc4cc(N5C[C@H]6NCCC(F)(F)[C@H]6C5)ccc4C3)sc2n1` [Example 238, N-[(3R)-7-[(4aS,7aS)-4,4-difluoro-octahydro-1H-pyrrolo[3,4-b]pyridin-6-yl]-3,4-dihydro-2H-1-benzopyran-3-yl]-3-amino-6-methylthieno[2,3-b]pyridine-2-carboxamide], the IC50 lay in the range of 0.001 to 0.05 µM.

For the compound `Cc1ccc2c(N)c(C(=O)N[C@H]3COc4cc(N5C[C@@H](N)CC[C@H]5C(F)(F)F)ccc4C3)sc2n1` [Example 245, 3-amino-N-[(3R)-7-[(2S,5S)-5-amino-2-(trifluoromethyl)piperidin-1-yl]-3,4-dihydro-2H-1-benzopyran-3-yl]-6-methylthieno[2,3-b]pyridine-2-carboxamide], the IC50 is 0.001 to 0.05 µM.

With `CO[C@H]1CN(c2cc3c(cc2C#N)C[C@@H](NC(=O)c2sc4nc(C)ccc4c2N)CC3)C[C@@H]1N` [Example 201, 3-amino-N-[(2S)-6-[(3S,4S)-3-amino-4-methoxypyrrolidin-1-yl]-7-cyano-1,2,3,4-tetrahydronaphthalen-2-yl]-6-methylthieno[2,3-b]pyridine-2-carboxamide], the half-maximal inhibitory concentration (IC50) was 0.001 to 0.05 µM.

For `Cc1ccc2c(N)c(C(=O)N[C@@H]3Cc4ccc(N5CCNCC5)nc4[C@@H](C)C3)sc2n1` (single isomer, unassigned) [Example 205], the IC50 lay within 0.2 to 2 µM.

On to `Cc1cc(C)c2c(N)c(C(=O)N[C@H]3COc4cc(N5CC[C@H]6CNC[C@H]65)ccc4C3)sc2n1` [Example 226, N-[(3R)-7-[(3aS,6aS)-octahydropyrrolo[2,3-c]pyrrol-1-yl]-3,4-dihydro-2H-1-benzopyran-3-yl]-3-amino-4,6-dimethylthieno[2,3-b]pyridine-2-carboxamide], for which the concentration for half-maximal inhibition (IC50) is 0.001 to 0.05 µM.

On to `CO[C@H]1CN(c2ccc3c(c2)OC[C@H](NC(=O)c2sc4nc(C)ccc4c2N)C3)C[C@@H]1NC(C)=O` [Example 213, 3-amino-N-[(3R)-7-[(3S,4S)-3-acetamido-4-methoxypyrrolidin-1-yl]-3,4-dihydro-2H-1-benzopyran-3-yl]-6-methylthieno[2,3-b]pyridine-2-carboxamide], for which the half-inhibitory concentration (IC50) lay within 0.05 to 0.2 µM.

Turning to `Cc1cc(C)c2c(N)c(C(=O)N[C@H]3CCc4nc(N5CC[C@@H]6CNC[C@@H]65)ccc4C3)sc2n1` [Example 219, N-[(6S)-2-[(3aR,6aR)-octahydropyrrolo[2,3-c]pyrrol-1-yl]-5,6,7,8-tetrahydroquinolin-6-yl]-3-amino-4,6-dimethylthieno[2,3-b]pyridine-2-carboxamide], the IC50 lay within 0.001 to 0.05 µM.

As for `Cc1ccc2c(N)c(C(=O)N[C@H]3COc4cc(N5C[C@H](OC(C)C)[C@@H](N)C5)ccc4C3)sc2n1` [Example 202, 3-amino-N-[(3R)-7-[(3S,4S)-3-amino-4-(propan-2-yloxy)pyrrolidin-1-yl]-3,4-dihydro-2H-1-benzopyran-3-yl]6-methylthieno[2,3-b]pyridine-2-carboxamide], the IC50 was 0.001 to 0.05 µM.

In the case of `Cc1ccc2c(N)c(C(=O)N[C@H]3COc4cc(N5CC[C@H]6CNCC[C@H]65)ccc4C3)sc2n1` [Example 235, N-[(3R)-7-[(3aS,7aR)-octahydro-1H-pyrrolo[3,2-c]pyridin-1-yl]-3,4-dihydro-2H-1-benzopyran-3-yl]-3-amino-6-methylthieno[2,3-b]pyridine-2-carboxamide], the IC50 was 0.001 to 0.05 µM.

Consider `Cc1ccc2c(N)c(C(=O)N[C@H]3Cc4ccc(N5CCNCC5)nc4[C@@H](C)C3)sc2n1` [Example 206, 3-amino-6-methyl-N-[(6R,8S)-8-methyl-2-(piperazin-1-yl)-5,6,7,8-tetrahydroquinolin-6-yl]thieno[2,3-b]pyridine-2-carboxamide], for which the IC50 was 0.05 to 0.2 µM.

`CCO[C@H]1CN(c2ccc3c(n2)OC[C@H](NC(=O)c2sc4nc(C)cnc4c2N)C3)C[C@@H]1N` [Example 182, 7-amino-N-[(3R)-7-[(3S,4S)-3-amino-4-ethoxypyrrolidin-1-yl]-2H,3H,4H-pyrano[2,3-b]pyridin-3-yl]-3-methylthieno[2,3-b]pyrazine-6-carboxamide]: the 50% inhibitory concentration (IC50) is 0.2 to 2 µM.

As to `CCO[C@@H]1CN(c2ccc3c(n2)CC[C@H](NC(=O)c2sc4nc(C)ccc4c2N)C3)C[C@@H]1N` [Example 254, 3-amino-N-[(6S)-2-[(3S,4R)-3-amino-4-ethoxypyrrolidin-1-yl]-5,6,7,8-tetrahydroquinolin-6-yl]-6-methylthieno[2,3-b]pyridine-2-carboxamide], the IC50 was 0.05 to 0.2 µM.

With `COC[C@H]1CN(c2ccc3c(c2)CC[C@H](NC(=O)c2sc4nc(C)ccc4c2N)C3)C[C@H]1N` [Example 253, 3-amino-N-[(2S)-6-[(3S,4S)-3-amino-4-(methoxymethyl)pyrrolidin-1-yl]-1,2,3,4-tetrahydronaphthalen-2-yl]-6-methylthieno[2,3-b]pyridine-2-carboxamide], the IC50 was 0.001 to 0.05 µM.

As for `Cc1cc(C)c2c(N)c(C(=O)N[C@H]3COc4cc(N5CC6CCC(C5)N6)c(C#N)c(F)c4C3)sc2n1` [Example 241, 3-amino-N-[(3R)-6-cyano-7-{3,8-diazabicyclo[3.2.1]octan-3-yl}-5-fluoro-3,4-dihydro-2H-1-benzopyran-3-yl]-4,6-dimethylthieno[2,3-b]pyridine-2-carboxamide], the IC50 lay in the range of 0.001 to 0.05 µM.

For the compound `Cc1ccc2c(N)c(C(=O)N[C@H]3COc4cc(N5CCO[C@H]6CNC[C@H]65)ccc4C3)sc2n1` [Example 184, N-[(3R)-7-[(4aR, 7aS)-octahydropyrrolo[3,4-b]morpholin-4-yl]-3,4-dihydro-2H-1-benzopyran-3-yl]-3-amino-6-methylthieno[2,3-b]pyridine-2-carboxamide], the half-inhibitory concentration (IC50) fell in the range of 0.001 to 0.05 µM.

Consider `COC[C@@H]1C[C@@H](N)CN1c1ccc2c(c1)OC[C@H](NC(=O)c1sc3nc(C)ccc3c1N)C2` [Example 260, 3-amino-N-[(3R)-7-[(25,4R)-4-amino-2-(methoxymethyl)pyrrolidin-1-yl]-3,4-dihydro-2H-1-benzopyran-3-yl]-6-methylthieno[2,3-b]pyridine-2-carboxamide], for which the 50% inhibitory concentration (IC50) is 0.001 to 0.05 µM.

Turning to `Cc1cc(C)c2c(N)c(C(=O)N[C@H]3COc4cc(N5CC[C@H]6CNC[C@H]65)cc(F)c4C3)sc2n1` (single isomer, unassigned) [Example 222], the half-inhibitory concentration (IC50) lay within 0.001 to 0.05 µM.

Turning to `CN[C@H]1CN(c2ccc3c(c2)OC[C@H](NC(=O)c2sc4nc(C)ccc4c2N)C3)C[C@@H]1OC` [Example 212, 3-amino-N-[(3R)-7-[(3S,4S)-3-methoxy-4-(methylamino)pyrrolidin-1-yl]-3,4-dihydro-2H-1-benzopyran-3-yl]-6-methylthieno[2,3-b]pyridine-2-carboxamide], the IC50 fell in the range of 0.001 to 0.05 µM.

Regarding `CO[C@]1(C)CN(c2ccc3c(n2)CC[C@H](NC(=O)c2sc4nc(C)ccc4c2N)C3)C[C@H]1N` [Example 211, 3-amino-N-[(6S)-2-[(3R,4R)-4-amino-3-methoxy-3-methylpyrrolidin-1-yl]-5,6,7,8-tetrahydroquinolin-6-yl]-6-methylthieno[2,3-b]pyridine-2-carboxamide], the 50% inhibitory concentration (IC50) is 0.05 to 0.2 µM.

Take `Cc1ccc2c(N)c(C(=O)N[C@H]3COc4cc(N5CC[C@H]6CNC[C@H]65)cc(F)c4C3)sc2n1` [Example 220, N-[(3R)-7-[(3aS,6aS)-octahydropyrrolo[2,3-c]pyrrol-1-yl]-5-fluoro-3,4-dihydro-2H-1-benzopyran-3-yl]-3-amino-6-methylthieno[2,3-b]pyridine-2-carboxamide]: the IC50 lay in the range of 0.001 to 0.05 µM.

`Cc1cc(C)c2c(N)c(C(=O)N[C@H]3COc4cc(N5CC[C@@H]6CNC[C@@H]65)ccc4C3)sc2n1` [Example 227, N-[(3R)-7-[(3aR,6aR)-octahydropyrrolo[2,3-c]pyrrol-1-yl]-3,4-dihydro-2H-1-benzopyran-3-yl]-3-amino-4,6-dimethylthieno[2,3-b]pyridine-2-carboxamide]: the half-maximal inhibitory concentration (IC50) was in the range of 0.001 to 0.05 µM.
